Here are results for two molecules from patent publication US20250353835A1, “N-TETRAZOLYL ARYL UREA-BASED DERIVATIVES, PREPARATION METHOD THEREFOR, AND USE THEREOF” (Hangzhou Yirui Pharmaceutical Technology Co., Ltd, priority 2022, published 2025).

Like-named read-outs stand apart in the source and are kept apart here.

Data set [1] deals with rat model of acute lung injury. The data set is described as follows: Rat model of LPS-induced acute lung injury. Type of data set: in vivo, Wistar rats. Also on record: IL-6 (serum) / IL-6 (homogenate of lung tissue) / IL-6 (bronchoalveolar lavage fluid) / TNF-α (serum) / TNF-α (homogenate of lung tissue) / TNF-α (bronchoalveolar lavage fluid): unit not given here. As to conditions: ELISA; for expression levels of IL-6 and TNF-α (in words): rat model of acute lung injury; for IL-6 (bronchoalveolar lavage fluid) / IL-6 (homogenate of lung tissue) / IL-6 (serum) / TNF-α (bronchoalveolar lavage fluid) / TNF-α (homogenate of lung tissue) / TNF-α (serum): test drug 30 mg/kg i.p. 2 h before and 1 h after LPS, 12 h after modeling. Here is the method: 1. Experimental aminals: SPF-grade male Wistar rats, weighed 180-220 g, 6-8 weeks old.
3. Establishment of animal model: The rats were adaptively fed for one week. After the animals were anesthetized, 3 mg/kg LPS (B8) was injected intratracheally to prepare the rat model of acute lung injury.
4. […] At 2 hours before modeling (before tracheal injection of LPS), the test drug (30 mg/kg, the vehicle was 0.3% DMSO in saline) was intraperitoneally injected. At 1 hour after modeling, the test drug was administered once again (at the same dose). At 12 hours after modeling, the animals were sacrificed, and the samples were collected for the tests of various indexes. […]
5.2 ELISA method: 5 rats per group. The serum, alveolar lavage fluid, and tissue homogenate of one lung of each of the rats were subjected to ELISA assay to determine the TNF-α and IL-6 levels.
In general terms: ELISA stands for enzyme-linked immunosorbent assay.

Data set [2] is described as follows: Intraocular and retinal drug concentration in rats after eye drops (HPLC). In kind it is in vivo. As to conditions: both sexes, SD, rat, topical, 10 μL of 2% solution per eye, twice a day for 7 days, 2% eye drops twice a day; for concentration at 1 h after the second eye drop on Day 7: 1 h after administration. The text has this:
2.1 Experimental aminals: SPF grade male SD rats, weighed 180-200 g, were used and adaptively fed for one week.
2.2 Drugs and reagents: Compound 71 and Compound 8; sodium chloride injection (Guangxi Yuyuan Pharmaceutical Co., Ltd.); sterile filter having 0.22 μm pore size (Millex).
2.3 Experimental animal grouping: the animals were randomly divided into 3 groups (6 rats per group) of a negative control group (normal saline), a Compound 71 group and a Compound 8 group.
2.4 Administration method and sampling: 2% Compound (10 μl) dissolved in normal saline (after filtration) was dropped into the surface of each rat's eye with a pipette for 10 s. The eye drop was applied twice a day for a total of 7 days. Samples were taken at 1 and 16 hours after the second administration on Day 7 of administration to determine the ocular distribution concentration of the drug.
The first batch of samples: 1 hour after the second eye drop on Day 7: 3 rats (2 males and 1 female) were taken from each group. The bulbus oculi were removed, and were thoroughly rinsed for 3 times with normal saline using a pipette. The washing solution was quickly dried with a qualitative filter paper. The cornea, vitreous body and retina were separated under a stereomicroscope, and frozen at −80° C. for subsequent measurement.
The second batch of samples: On the morning of Day 8, i.e., at 16 hours after the second eye drop on Day 7: the remaining 3 rats (1 male and 2 females) were taken from each group. The bulbus oculi were removed, and were thoroughly rinsed for 3 times with normal saline using a pipette. The washing solution was quickly dried with a qualitative filter paper. The cornea, vitreous body and retina were separated under a stereomicroscope, and frozen at −80° C. for subsequent detection.
2.7.3 Results of HPLC measurement of drug content in eye tissue: Under the selected chromatographic conditions for analysis, drug impurities were well separated. The chromatograms for a sample of standard solution, a sample of blank homogenate, a sample of blank homogenate added with Compound 71 or Compound 8, and a sample of retinal homogenate samples were compared. […] Under the selected HPLC measurement conditions, the average recovery rates for two compounds under test were both above 90%. […] The precision can meet the measurement standard. As shown by the accuracy results, the accuracy for all of the high, medium and low concentration retinal spiked quality control samples (QC) within the drug curve range was higher than 95%.

Data set [3] in a line: Pharmacokinetics in vivo in rats. Also noted: species or system SD rats. The conditions noted are these: for clearance / half-life / Vd / AUC / Cmax / bioavailability: SD, rat, plasma; for Vd: read-out: Apparent volume of distribution (Vss); for AUC: read-out: Area under the curve of plasma concentration-time (AUC); for Cmax: read-out: Peak concentration (Cmax). Here is the method: 1. […] At different time points after administration, blood samples were collected into EDTA blood sample collection tubes. Plasma was separated by centrifugation and stored at −20° C. for the analysis afterwards.
2. Handling of blood samples and LC-MS/MS analysis: the standard curve and formulation and processing of quality control sample: The compound stock solution was diluted with 50% methanol in water to form a standard curve working solution containing each compound at a concentration of 40-20000 ng/mL and a quality control working solution of 120, 1200, and 16000 ng/mL. 47.5 μL of blank rat plasma were respectively taken, and added into 2.50 μL of standard curve working solution or the quality control working solution, to formulate the standard curve samples containing the compound at a concentration of 2.00-1000.00 ng/mL and the quality control samples having a concentration of […] and 800.00 ng/mL. 400 μL of acetonitrile (containing 5 ng/mL of verapamil as an internal standard) was added respectively. The samples were vortexed for 3 min, centrifuged at 20000 rcf, 4° C. for 15 min. The supernatant was taken for LC-MS/MS analysis.
3. Treatment of the compound blood samples: 5 μL of plasma sample was taken, to which 95 μL of blank rat plasma was added, and 800 μL of acetonitrile (containing 5 ng/mL of verapamil as an internal standard) was added. The samples were vortexed for 3 min, centrifuged at 15000 rcf, 4° C. for 10 min. The supernatant was taken for LC-MS/MS analysis (chromatographic column: ACQUITY UPLC® BEH C18 2.1×50 mm 1.7 μm; mobile phase A: 0.1% formic acid in water; mobile phase B: acetonitrile; flow rate: […]).
4. Analysis of the results: pharmacokinetic parameters were fit and calculated by WinNonlin software using statistical […] method, mainly including kinetic parameters Tmax, t1/2, Cmax, AUC0-t, AUC0∞, Cl, Vd, F, etc. The pharmacokinetic data were calculated and processed using Microsoft Excel, such as mean and standard deviation.

Setting [4] is: cornea, read-out: Content of test compound in Cornea.
[5] abbreviates: cornea, 16 h after administration, read-out: Content of test compound in Cornea.
[6] abbreviates: retina, read-out: Content of test compound in Retina.
Setting [7] is: retina, 16 h after administration, read-out: Content of test compound in Retina.
Setting [8] is: vitreous body, read-out: Content of test compound in Vitreous body.
[9] abbreviates: vitreous body, 16 hours after administration, read-out: Content of test compound in Vitreous body.
Setting [10] is: 3 mg/kg oral administration in rats (Table 2A).
Setting [11] is: 3 mg/kg intravenous injection in rats.

The term clearance denotes a measure of how efficiently the substance is removed, as volume per time. In general, half-life refers to the time needed for the level to fall by half in the phase considered. Broadly, the bioavailability is the share of a dose that reaches the circulation, judged against a reference dose that is usually intravenous. For the molecule `CCOc1ccc(-c2c(F)cc(NC(=O)N3CCC(C(C)(C)C)CC3)cc2-c2nn[nH]n2)cn1` [Compound 8, 4-(tert-butyl)-N-(4-(6-ethoxypyrid-3-yl)-3-fluoro-5-(2H-tetrazol-5-yl)phenyl)piperidine-1-carboxamide], in data set [1], the “expression levels of IL-6 and TNF-α (in words)” value is “effectively reduce”; the “IL-6 (bronchoalveolar lavage fluid)” value was found to be 171.55 ± 81.93; the “IL-6 (homogenate of lung tissue)” value came to 250.10 ± 70.26; the “IL-6 (serum)” value was 470.76 ± 151.60. Moreover, in data set [1], the “TNF-α (bronchoalveolar lavage fluid)” value turned out to be 26.72 ± 10.35, the “TNF-α (homogenate of lung tissue)” value was determined as 35.74 ± 11.82 and the “TNF-α (serum)” value came out at 94.89 ± 28.07. The concentration at 1 h after the second eye drop on Day 7 in data set [2] (setting [4]) was 101000 ± 28200 ng/g. Further, the concentration at 16 h after the second eye drop on Day 7 in data set [2] (setting [5]) was determined as 40700 ± 18800 ng/g. Besides, the concentration at 1 h after the second eye drop on Day 7 in data set [2] (setting [6]) came out at 55000 ± 6910 ng/g. For the same molecule, the concentration at 16 h after the second eye drop on Day 7 in data set [2] (setting [7]) amounted to 15800 ± 8410 ng/g. For the same molecule, in data set [2] (setting [8]), the concentration at 1 h after the second eye drop on Day 7 is 18200 ± 4650 ng/g. Also, in data set [2] (setting [9]), the concentration at 16 h after the second eye drop on Day 7 amounted to 10100 ± 2670 ng/g. Also, in data set [3] (setting [10]), the “Peak time” value was 0.78 h, the bioavailability amounted to 6.1%, the half-life was 3.37 h and the AUC stood at 3130 ng·h/mL. Moreover, the Cmax in data set [3] (setting [10]) stood at 1390 ng/mL. Further, in data set [3] (setting [11]), the clearance is 9.87 mL/min/kg, the half-life was 0.56 h, the Vd is 0.328 L/kg and the AUC amounted to 5090 ng·h/mL. In data set [3] (setting [11]), the Cmax is 16400 ng/mL.
For `CCOc1ccc(-c2ccc(NC(=O)N[C@H]3CC[C@H](C)CC3)cc2-c2nn[nH]n2)cn1` [Compound 71, 1-(4-(6-ethoxypyrid-3-yl)-3-(2H-tetrazol-5-yl)phenyl)-3-((trans)-4-methylcyclohexyl)urea], in data set [1], the “expression levels of IL-6 and TNF-α (in words)” value is listed as “effectively reduce”; the “IL-6 (bronchoalveolar lavage fluid)” value was 184.29 ± 75.57; the “IL-6 (homogenate of lung tissue)” value stood at 236.26 ± 84.91; the “IL-6 (serum)” value is recorded as 473.14 ± 134.88. Besides, in data set [1], the “TNF-α (bronchoalveolar lavage fluid)” value was 25.73 ± 11.35, the “TNF-α (homogenate of lung tissue)” value was 37.03 ± 10.88 and the “TNF-α (serum)” value came to 101.63 ± 37.40. For the same molecule, the concentration at 1 h after the second eye drop on Day 7 in data set [2] (setting [4]) was determined as 93100 ± 16900 ng/g. Further, in data set [2] (setting [5]), the concentration at 16 h after the second eye drop on Day 7 was 43500 ± 6590 ng/g. In addition, the concentration at 1 h after the second eye drop on Day 7 in data set [2] (setting [6]) was determined as 64800 ± 18300 ng/g. Also, in data set [2] (setting [7]), the concentration at 16 h after the second eye drop on Day 7 is 6070 ± 3060 ng/g. Moreover, the concentration at 1 h after the second eye drop on Day 7 in data set [2] (setting [8]) turned out to be 24200 ± 7070 ng/g. Also, in data set [2] (setting [9]), the concentration at 16 h after the second eye drop on Day 7 turned out to be 12700 ± 3490 ng/g. In data set [3] (setting [10]), the “Peak time” value was 2.72 h, the bioavailability was 3.6%, the half-life is 3.63 h and the AUC was 7480 ng·h/mL. In addition, the Cmax in data set [3] (setting [10]) stood at 914 ng/mL. In data set [3] (setting [11]), the clearance is 2.42 mL/min/kg, the half-life was 0.93 h, the Vd stood at 0.156 L/kg and the AUC is 20700 ng·h/mL. In data set [3] (setting [11]), the Cmax stood at 37500 ng/mL.
